Values quoted from earlier work, collected in paper PMC8347148, “An Evaluation of Human Induced Pluripotent Stem Cells to Test for Cardiac Developmental Toxicity” (International Journal of Molecular Sciences, 2021).

Details: can be as high as; cited from earlier work

CN1CCC[C@H]1c1cccnc1 [nicotine]
nicotine concentration in fetal serum: ≤ 15.4 µM
